Where “and” joins values, the source holds several entries; their conditions need not be identical. Equal values may be shown once.
Assay: wn = mass fraction of the nth substance listed
Details: 101 kPa, Liquid, Alternating current cell with electrodes, w1 = 0.01

CCCCCCCCCCCC[N+](CC)(CC)CCCCCCCCCCCC.[Br-] [didodecyldiethylammonium bromide] + O
Details	electrical conductivity
279.25 K	0.00329 S/m
279.35 K	0.00328 S/m
279.45 K	0.00328 S/m
279.55 K	0.00328 S/m
279.65 K	0.00329 S/m
279.75 K	0.00331 S/m and 0.00332 S/m
279.85 K	0.00335 S/m
279.95 K	0.00338 S/m and 0.00343 S/m
280.15 K	0.00345 S/m
280.25 K	0.00348 S/m
280.35 K	0.00355 S/m
280.45 K	0.00357 S/m
280.55 K	0.00359 S/m
280.65 K	0.0036 S/m
280.75 K	0.00364 S/m
280.85 K	0.0037 S/m and 0.00371 S/m
280.95 K	0.00378 S/m
281.05 K	0.00381 S/m
281.15 K	0.00381 S/m
281.25 K	0.00371 S/m
281.35 K	0.00377 S/m
281.45 K	0.00374 S/m
281.55 K	0.00378 S/m
281.65 K	0.00378 S/m
281.85 K	0.00378 S/m
281.95 K	0.00374 S/m
282.05 K	0.00366 S/m
282.25 K	0.00373 S/m
282.45 K	0.00366 S/m
282.65 K	0.00365 S/m
282.75 K	0.00364 S/m
282.85 K	0.00356 S/m
283.05 K	0.00356 S/m
283.15 K	0.0036 S/m
283.35 K	0.0034 S/m
283.45 K	0.0036 S/m
283.55 K	0.00354 S/m
283.75 K	0.0035 S/m
283.85 K	0.00351 S/m
283.95 K	0.00346 S/m
284.05 K	0.0035 S/m
284.25 K	0.00354 S/m
284.35 K	0.00354 S/m
284.55 K	0.0034 S/m
284.65 K	0.00355 S/m
284.75 K	0.0035 S/m
284.85 K	0.00345 S/m
284.95 K	0.00352 S/m
285.05 K	0.00342 S/m
285.15 K	0.00344 S/m
285.25 K	0.0035 S/m
285.35 K	0.00344 S/m
285.45 K	0.00344 S/m
285.55 K	0.00342 S/m
285.65 K	0.00343 S/m
285.75 K	0.0034 S/m
285.85 K	0.00342 S/m
285.95 K	0.00343 S/m
286.05 K	0.00348 S/m
286.15 K	0.0034 S/m
286.25 K	0.00342 S/m
286.35 K	0.00341 S/m
286.45 K	0.00343 S/m
286.55 K	0.00339 S/m
286.65 K	0.0034 S/m
286.75 K	0.00347 S/m
286.95 K	0.00347 S/m
287.05 K	0.00347 S/m
287.15 K	0.00344 S/m
287.25 K	0.00341 S/m
287.35 K	0.00345 S/m
287.45 K	0.00347 S/m
287.55 K	0.00345 S/m
287.65 K	0.00341 S/m
287.75 K	0.00342 S/m
287.85 K	0.00343 S/m
287.95 K	0.00348 S/m
288.05 K	0.00344 S/m
288.15 K	0.00345 S/m
288.25 K	0.00342 S/m
288.45 K	0.0035 S/m
288.55 K	0.00357 S/m
288.65 K	0.00345 S/m
288.75 K	0.0035 S/m
288.85 K	0.00345 S/m
288.95 K	0.00346 S/m
289.05 K	0.00344 S/m
289.15 K	0.00349 S/m
289.25 K	0.00346 S/m
289.35 K	0.00352 S/m
289.45 K	0.00346 S/m
289.55 K	0.00347 S/m
289.65 K	0.00352 S/m
289.75 K	0.00352 S/m
289.85 K	0.00352 S/m
289.95 K	0.00351 S/m
290.05 K	0.00357 S/m
290.15 K	0.00348 S/m
290.25 K	0.0035 S/m
290.35 K	0.00347 S/m
290.55 K	0.00355 S/m
290.65 K	0.00364 S/m
290.75 K	0.00356 S/m
290.85 K	0.00359 S/m
290.95 K	0.0036 S/m
291.05 K	0.00358 S/m
291.15 K	0.00361 S/m
291.25 K	0.00357 S/m
291.35 K	0.00362 S/m
291.45 K	0.0036 S/m
291.55 K	0.00366 S/m
291.65 K	0.00359 S/m
291.75 K	0.0036 S/m
291.85 K	0.00363 S/m
291.95 K	0.00362 S/m
292.05 K	0.00364 S/m
292.15 K	0.00366 S/m
292.25 K	0.00366 S/m
292.35 K	0.00367 S/m
292.45 K	0.00362 S/m
292.55 K	0.00374 S/m
292.65 K	0.00369 S/m
292.75 K	0.00367 S/m
292.85 K	0.00372 S/m
292.95 K	0.00369 S/m
293.05 K	0.00378 S/m
293.15 K	0.00377 S/m
293.25 K	0.00376 S/m
293.35 K	0.00376 S/m
293.45 K	0.0037 S/m
293.55 K	0.00375 S/m
293.65 K	0.00376 S/m
293.75 K	0.00372 S/m
293.85 K	0.00383 S/m
293.95 K	0.00378 S/m
294.05 K	0.0038 S/m
294.15 K	0.00381 S/m
294.25 K	0.0038 S/m
294.35 K	0.00381 S/m
294.45 K	0.00383 S/m
294.55 K	0.00382 S/m
294.65 K	0.00384 S/m
294.75 K	0.00385 S/m
294.85 K	0.00386 S/m
294.95 K	0.00387 S/m
295.05 K	0.00389 S/m
295.15 K	0.00389 S/m
295.25 K	0.00386 S/m
295.35 K	0.00396 S/m
295.45 K	0.00395 S/m
295.55 K	0.00387 S/m
295.65 K	0.00396 S/m
296.45 K	0.00389 S/m
296.55 K	0.00397 S/m
296.75 K	0.00394 S/m
297.45 K	0.00396 S/m
297.85 K	0.00401 S/m
298.15 K	0.00402 S/m
298.55 K	0.00399 S/m
298.75 K	0.00405 S/m
298.95 K	0.00402 S/m
299.15 K	0.00407 S/m
299.55 K	0.00409 S/m
299.75 K	0.00406 S/m
300.05 K	0.00407 S/m
300.45 K	0.00419 S/m
300.75 K	0.00428 S/m
300.95 K	0.00431 S/m
301.55 K	0.00453 S/m
301.85 K	0.00472 S/m
302.15 K	0.0048 S/m
302.35 K	0.005 S/m
302.75 K	0.00518 S/m
303.05 K	0.00543 S/m
303.45 K	0.00568 S/m
303.75 K	0.00609 S/m
304.55 K	0.00686 S/m
304.85 K	0.00713 S/m
305.15 K	0.00765 S/m
305.55 K	0.00812 S/m
305.85 K	0.00833 S/m
306.05 K	0.00891 S/m
306.35 K	0.00946 S/m
307.35 K	0.0136 S/m
307.55 K	0.0157 S/m
307.95 K	0.016 S/m
308.25 K	0.0159 S/m
308.35 K	0.016 S/m
308.75 K	0.0162 S/m
308.95 K	0.0165 S/m
309.25 K	0.0167 S/m
309.75 K	0.0169 S/m
310.05 K	0.0171 S/m
310.15 K	0.0172 S/m
310.45 K	0.0175 S/m
310.65 K	0.0177 S/m
310.85 K	0.0179 S/m
311.05 K	0.018 S/m
311.25 K	0.0181 S/m
311.45 K	0.0183 S/m
311.65 K	0.0184 S/m
311.75 K	0.0185 S/m
311.85 K	0.0187 S/m
311.95 K	0.0188 S/m
312.15 K	0.0189 S/m
312.35 K	0.0192 S/m
312.55 K	0.0194 S/m
312.65 K	0.0194 S/m
312.85 K	0.0196 S/m
312.95 K	0.0196 S/m
313.35 K	0.0201 S/m
313.65 K	0.0204 S/m
313.85 K	0.0205 S/m
313.95 K	0.0207 S/m
314.05 K	0.0208 S/m
314.15 K	0.0209 S/m
314.35 K	0.021 S/m
314.45 K	0.0212 S/m
314.65 K	0.0213 S/m
314.75 K	0.0214 S/m
314.85 K	0.0216 S/m
314.95 K	0.0217 S/m
315.05 K	0.0218 S/m
315.15 K	0.0219 S/m
315.25 K	0.022 S/m
315.35 K	0.0222 S/m

Reference: the NIST ThermoML archive (doi:10.1021/acs.jced.5b00367)
